Read-outs that look alike come from different tables or passages of the source.
Legend:
[1] = tested on: Enterobacter cloacae (ATCC 13047); assay: Bacterial proliferation assay, E. cloacae; format: cell-based
Description: (§1) Bacterial Strains: Enterococcus faecium—(Orla-Jensen) Schleifer and Kilpper-Balz strain NCTC 7171 (ATCC 19434); Drug sensitive Staphylococcus aureus—Rosenbranch strain Seattle 1945 (ATCC 25923); Methicillin resistant S. aureus (MRSA)—Rosenbach strain HPV107 (ATCC BAA-44); Klebsiella Pneumonia—(Schroeter) Trevisan strain NCTC 9633 (ATCC 13883); Acinetobacter baumannii—Bouvet and Grimont strain 2208 (ATCC 19606); Pseudomonas aeruginosa—(Schroeter) Migula strain NCTC 10332 (ATCC 10145); Enterobacter cloacae—E. cloacae, subsp. cloacae (Jordan) Hormaeche and Edwards strain CDC 442-68 (ATCC 13047).
(§2) Growth Media: All bacteria were grown in Brain Heart Infusion (BHI) broth/agar (Becton, Dickinson and Company). All liquid cultures were grown in BHI media supplemented with 25 mg/L Ca^2+ and 12.5 mg/L Mg^2+ to mimic free physiological concentrations of these cations. A 10 mg/mL Ca^2+ stock solution was prepared by dissolving 3.68 g of CaCl2.2H2O in 100 mL of deionized water, and a 10 mg/mL Mg^2+ stock solution was prepared by dissolving 8.36 g of MgCl2.6H2O in 100 mL deionized water. Both stock solutions were filter-sterilized using 0.2 μm pore size cellulose-acetate filters. 2.5 mL of the sterile 10 mg/mL Ca^2+ stock and 1.25 mL of the sterile 10 mg/mL Mg^2+ stock solutions were added per 1 L of autoclaved BHI medium to obtain 25 mg/L Ca^2+ and 12.5 mg/L Mg^2+ ions, respectively.
(§3) General Assay Protocol: Stock bacterial cultures were streaked onto BHI agar plates and grown overnight at 37° C. Fresh aliquots of broth were inoculated with single bacterial colonies and the cultures were grown overnight at 37° C. with shaking (240 rpm) in cation adjusted BHI media. The following morning, the overnight cultures were sub-cultured (1:5 dilution) into fresh aliquots of cation adjusted BHI media and grown at 37° C. for 1-2 hours with shaking. After 2 h, cultures were diluted into fresh media to achieve final OD600 readings of 0.017. Aliquots of these diluted cultures (30 μL) were added to clear, flat-bottom, 384-well polystyrene plates that were stamped with 0.5 μL of test compounds in 20 μL media. […] Plates were sealed with “Breathe Easy” oxygen permeable membranes (Diversified Biotech) and left to incubate at 37° C. without shaking (stagnant assay). OD600 nm readings were taken at either 6-8 h (S. aureus, MRSA, K. pneumonia, E. cloacae, and P. aeruginosa) or 24 h (E. faecium and A. baumannii). A second set of baseline control plates were prepared analogously, but without any bacteria added, to correct for possible compound absorbance and/or precipitation. Plates were then read at 600 nm using a Molecular Devices SpectraMax Plus384 microplate reader. […] Results presented represent the averages of EC50 values obtained from at quadriplicate (duplicate of duplicate) replicates.

[2] = tested on: Klebsiella Pneumonia (ATCC 13883); assay: Bacterial proliferation assay, K. pneumoniae; format: cell-based
Description: as §1, §2, §3

[3] = tested on: Pseudomonas aeruginosa (ATCC 10145); assay: Bacterial proliferation assay, P. aeruginosa; format: cell-based
Description: as §1, §2, §3

[4] = tested on: Methicillin resistant S. aureus (MRSA) (ATCC BAA-44); assay: Bacterial proliferation assay, MRSA; format: cell-based, Staphylococcus aureus; conditions: Staphylococcus aureus
Description: as §1, §2, §3

[5] = tested on: Enterococcus faecium (ATCC 19434); assay: Bacterial proliferation assay, E. faecium; format: cell-based
Description: as §1, §2, §3

[6] = tested on: Drug sensitive Staphylococcus aureus (ATCC 25923); assay: Bacterial proliferation assay, drug sensitive S. aureus; format: cell-based
Description: as §1, §2, §3

native MDH = target: T1, native MDH (Sus scrofa, UniProt P00346); assay: Counter-screen for inhibition of native MDH enzymatic activity; format: biochemical, pig
T1 construct: soluble pig heart MDH from Roche, product #10127248001; purchased Roche 10127248001; host or cells: pig heart
T1 sequence (P00346 25-338): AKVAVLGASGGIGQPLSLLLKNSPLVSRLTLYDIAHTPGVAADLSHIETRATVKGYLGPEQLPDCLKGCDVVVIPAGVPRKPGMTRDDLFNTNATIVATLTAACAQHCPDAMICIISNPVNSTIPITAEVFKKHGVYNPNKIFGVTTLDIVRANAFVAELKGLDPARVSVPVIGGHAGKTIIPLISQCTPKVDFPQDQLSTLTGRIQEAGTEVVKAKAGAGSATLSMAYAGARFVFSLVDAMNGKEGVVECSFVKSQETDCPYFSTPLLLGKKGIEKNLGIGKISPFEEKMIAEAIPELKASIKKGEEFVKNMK
In short: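 Fully refolded MDH, produced by a 45 min, 37 °C GroEL/ES reaction and stopped with EDTA, was then dosed with compound (62.5 μM–29 nM, 8 points, 3-fold). Activity was read as A340 NADH decrease until ~90% consumed; reported IC50s are means of at least quadruplicate runs.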

[7] = ATCC13047, OD600 at 6-8 h, read-out: Bacterial Proliferation EC50 E. cloacae
[8] = ATCC13047, log of EC50 (μM scale), with standard deviation, read-out: log(EC50) Bacterial Proliferation Assay E. cloacae (converted)
[9] = ATCC13883, OD600 at 6-8 h, read-out: Bacterial Proliferation EC50 K. pneumoniae
[10] = ATCC13883, log of EC50 (μM scale), with standard deviation, read-out: log(EC50) Bacterial Proliferation Assay K. pneumoniae (converted)
[11] = ATCC10145, OD600 at 6-8 h, read-out: Bacterial Proliferation EC50 P. aeruginosa
[12] = ATCC10145, log of EC50 (μM scale), with standard deviation, read-out: log(EC50) Bacterial Proliferation Assay P. aeruginosa (converted)
[13] = MRSA, OD600 at 6-8 h, read-out: Bacterial Proliferation EC50 S. aureus Resistant
[14] = MRSA, log of EC50 (μM scale), with standard deviation, read-out: log(EC50) Bacterial Proliferation Assay S. aureus Resistant (converted)
[15] = ATCC19434, OD600 at 24 h, read-out: Bacterial Proliferation EC50 E. faecium
[16] = ATCC19434, log of EC50 (μM scale), with standard deviation, read-out: log(EC50) Bacterial Proliferation Assay C. faecium (converted)
[17] = ATCC25923, OD600 at 6-8 h, read-out: Bacterial Proliferation EC50 S. aureus Sensitive
[18] = ATCC25923, log of EC50 (μM scale), with standard deviation, read-out: log(EC50) Bacterial Proliferation Assay S. aureus Sensitive (converted)
[19] = log of IC50 (μM scale), with standard deviation, read-out: log(IC50) Native MDH Reporter (converted)
[20] = read-out: Biochemical Assay IC50 Native MDH Reporter
[21] = ATCC13047, read-out: Bacterial Proliferation EC50 E. cloacae
[22] = ATCC13047, read-out: log(EC50) Bacterial Proliferation Assay E. cloacae (converted)
[23] = ATCC13883, read-out: Bacterial Proliferation EC50 K. pneumoniae
[24] = ATCC13883, read-out: log(EC50) Bacterial Proliferation Assay K. pneumoniae (converted)
[25] = ATCC10145, read-out: Bacterial Proliferation EC50 P. aeruginosa
[26] = ATCC10145, read-out: log(EC50) Bacterial Proliferation Assay P. aeruginosa (converted)
[27] = read-out: Bacterial Proliferation EC50 S. aureus Resistant
[28] = read-out: log(EC50) Bacterial Proliferation Assay S. aureus Resistant (converted)
[29] = ATCC19434, 24 h, read-out: Bacterial Proliferation EC50 E. faecium
[30] = ATCC19434, read-out: log(EC50) Bacterial Proliferation Assay C. faecium (converted)
[31] = ATCC25923, read-out: Bacterial Proliferation EC50 S. aureus Sensitive
[32] = ATCC25923, read-out: S. aureus Proliferation & Biofilm Assay EC50 Planktonic Growth
[33] = ATCC25923, read-out: log(EC50) Bacterial Proliferation Assay S. aureus Sensitive (converted)

O=C(Nc1cccc(Cl)c1)c1cccc(Br)c1O [Compound 10, 3-Bromo-N-(3-chlorophenyl)-2-hydroxybenzamide]
EC50 [1, 7]: > 100 µM
EC50 [1, 8]: > 100 µM
EC50 [2, 9]: > 100 µM
EC50 [2, 10]: > 100 µM
EC50 [3, 11]: > 100 µM
EC50 [3, 12]: > 100 µM
EC50 [4, 13]: 2 µM
EC50 [4, 14]: 2 µM
EC50 [5, 15]: > 100 µM
EC50 [5, 16]: > 100 µM
EC50 [6, 17]: 1.3 µM
EC50 [6, 18]: 1.32 µM
IC50 (native MDH; [19]): > 63.1 µM

COc1c(Br)cccc1C(=O)Nc1cccc(Cl)c1 [Compound 38]
EC50 [1, 7]: > 100 µM
EC50 [1, 8]: > 100 µM
EC50 [2, 9]: > 100 µM
EC50 [2, 10]: > 100 µM
EC50 [3, 11]: > 100 µM
EC50 [3, 12]: > 100 µM
EC50 [4, 14]: > 100 µM
EC50 [5, 15]: > 100 µM
EC50 [5, 16]: > 100 µM
EC50 [6, 17]: > 100 µM
EC50 [6, 18]: > 100 µM
IC50 (native MDH; [19]): > 63.1 µM
IC50 (native MDH; [20]): > 63 µM

CN[C@H](CC(C)C)C(=O)N[C@H]1C(=O)N[C@@H](CC(N)=O)C(=O)N[C@H]2C(=O)N[C@H]3C(=O)N[C@H](C(=O)N[C@H](C(=O)O)c4cc(O)cc(O)c4-c4cc3ccc4O)[C@H](O)c3ccc(c(Cl)c3)Oc3cc2cc(c3O[C@@H]2O[C@H](CO)[C@@H](O)[C@H](O)[C@H]2O[C@H]2C[C@](C)(N)[C@H](O)[C@H](C)O2)Oc2ccc(cc2Cl)[C@H]1O [Vancomycin, vancomycin, reference compound]
EC50 [1, 21]: > 100 µM
EC50 [1, 22]: > 100 µM
EC50 [2, 23]: > 100 µM
EC50 [2, 24]: > 100 µM
EC50 [3, 25]: > 100 µM
EC50 [3, 26]: > 100 µM
EC50 [4, 27]: 0.52 µM
EC50 [4, 28]: 0.513 µM
EC50 [5, 29]: 0.6 µM
EC50 [5, 30]: 0.589 µM
EC50 [6, 31]: 0.67 µM
EC50 [6, 32]: 0.67 µM
EC50 [6, 33]: 0.661 µM
IC50 (native MDH; Biochemical Assay IC50 Native MDH Reporter): > 63 µM
IC50 (native MDH; log(IC50) Native MDH Reporter, log of IC50 (μM scale), with standard deviation): > 63.1 µM

O=C(Nc1ccccc1)c1cccc(Br)c1O [Compound 14, 3-Bromo-2-hydroxy-N-phenylbenzamide]
EC50 [1, 7]: > 100 µM
EC50 [1, 8]: > 100 µM
EC50 [2, 9]: > 100 µM
EC50 [2, 10]: > 100 µM
EC50 [3, 11]: > 100 µM
EC50 [3, 12]: > 100 µM
EC50 [4, 13]: 10 µM
EC50 [4, 14]: 10 ± 1.7 µM
EC50 [5, 15]: > 100 µM
EC50 [5, 16]: > 100 µM
EC50 [6, 17]: 6.4 µM
EC50 [6, 18]: 6.46 µM
IC50 (native MDH; [19]): > 63.1 µM
IC50 (native MDH; [20]): > 63 µM

O=C(Nc1ccccc1)c1cc(Br)ccc1O [Compound 15, 5-Bromo-2-hydroxy-N-phenylbenzamide]
EC50 [1, 7]: > 100 µM
EC50 [1, 8]: > 100 µM
EC50 [2, 9]: 78 µM
EC50 [2, 10]: 77.6 µM
EC50 [3, 11]: > 100 µM
EC50 [3, 12]: > 100 µM
EC50 [4, 13]: 4.1 µM
EC50 [4, 14]: 4.07 µM
EC50 [5, 15]: > 100 µM
EC50 [5, 16]: > 100 µM
EC50 [6, 17]: 2.8 µM
EC50 [6, 18]: 2.75 µM
IC50 (native MDH; [19]): > 63.1 µM
IC50 (native MDH; [20]): > 63 µM

COc1ccccc1C(=O)Nc1cccc(Cl)c1 [Compound 40, N-(3-Chlorophenyl)-2-methoxybenzamide]
EC50 [1, 7]: > 100 µM
EC50 [1, 8]: > 100 µM
EC50 [2, 9]: > 100 µM
EC50 [2, 10]: > 100 µM
EC50 [3, 11]: > 100 µM
EC50 [3, 12]: > 100 µM
EC50 [4, 14]: > 100 µM
EC50 [5, 15]: > 100 µM
EC50 [5, 16]: > 100 µM
EC50 [6, 17]: > 100 µM
EC50 [6, 18]: > 100 µM
IC50 (native MDH; [19]): > 63.1 µM
IC50 (native MDH; [20]): > 63 µM

O=C(Nc1ccc(Sc2nc3ccccc3s2)cc1)c1cc(Br)cc(Br)c1O [Compound 5, N-(4-(Benzo[d]thiazol-2-ylthio)phenyl)-3,5-dibromo-2-hydroxybenzamide]
EC50 [1, 21]: > 100 µM
EC50 [1, 22]: > 100 µM
EC50 [2, 23]: > 100 µM
EC50 [2, 24]: > 100 µM
EC50 [3, 25]: > 100 µM
EC50 [3, 26]: > 100 µM
EC50 [4, 27]: 0.52 µM
EC50 [4, 28]: 0.525 µM
EC50 [5, 29]: 0.88 µM
EC50 [5, 30]: 0.891 µM
EC50 [6, 31]: 0.44 µM
EC50 [6, 32]: 0.44 µM
EC50 [6, 33]: 0.437 µM
inhibition of native MDH enzymatic activity (in words) (native MDH; false-positive counter-screen): inhibit native MDH
log(IC50) Native MDH Reporter (native MDH; log of IC50 (μM scale), with standard deviation): 0.92 ± 0.21

Source: patent US20210395210A1, “INHIBITION OF BACTERIAL CHAPERONIN SYSTEMS” (THE TRUSTEES OF INDIANA UNIVERSITY, priority 2018, published 2021)
